Source: patent US4525348A, “Pranoprofen gelled ointment” (priority 1983, dated 1985)

Experiments:
[1] = oral administration, as compared with indomethacin or other nonsteroid agents; cited from earlier work
[2] = Percutaneous absorption and excretion (Experiment 8); conditions: rat
Excerpt: Male Donryu rats weighing 120-140 g were divided into groups of 4 animals each. The backs of the rats were shaved with an electric clipper and an electric shaver. […] After this application, the test ointment remaining was wiped off at a set time with absorbent cotton moistened with 50% ethanol. The contained ^14 C was eluted with methanol and determined by conventional methods.

CC(C(=O)O)c1ccc2c(c1)Cc1cccnc1O2 (stereo not drawn) [pranoprofen]
Adverse effects such as gastroenteric disorders [1]: very rarely | Half life of disappearance from blood ([2]; absorbed pranoprofen, topical): about 5 hours | Excretion route ([2]; in vivo): excreted mainly into urine and feces
